Measurements: article PMC4636954 (Journal of ethnopharmacology, 2015)
Read-outs that look alike come from different tables or passages of the source.

Legend:
δ opioid receptor [1] = molecular target: T1, δ opioid receptor (Homo sapiens, UniProt P41143); experiment: δ opioid competitive radioligand binding; details: for Opioid receptor displacement (%) δ: Tested at 10 µM
κ opioid receptor = κ opioid receptor (Homo sapiens, UniProt P41145); experiment: κ opioid competitive radioligand binding; details: for Opioid receptor displacement (%) κ: Tested at 10 µM
μ opioid receptor [2] = molecular target: T2, μ opioid receptor (Homo sapiens, UniProt P35372); experiment: μ opioid competitive radioligand binding; details: for Opioid receptor displacement (%) μ: Tested at 10 µM
[3] = test system: Adult male Swiss Webster mice; experiment: Mouse tetrad assay; details: for Catalepsy Latency / Hotplate Latency (% MPE) / Tail-Flick Latency (% MPE) / Rectal temperature (°C): 30 min post-injection; for Rectal temperature (°C): change in core body temperature
δ opioid receptor [4] = molecular target: T1, δ opioid receptor; experiment: In vitro GTPγS functional assay, δ-opioid; type: biochemical
μ opioid receptor [5] = molecular target: T2, μ opioid receptor; experiment: In vitro GTPγS functional assay, μ-opioid; type: biochemical
[6] = ip, dose not stated or 'lower doses' (10–100 mg/kg tested)

For `Oc1ccc(CC2NCCc3cc(O)c(O)cc32)cc1` (racemic) [Compound 11, (±)-higenamine], the “Opioid receptor displacement (%) δ” value (δ opioid receptor [1]) was “did not show any significant displacements”, the “Opioid receptor displacement (%) κ” value (κ opioid receptor) was “did not show any significant displacements” and the “Opioid receptor displacement (%) μ” value (μ opioid receptor [2]) was “did not show any significant displacements”.
With `COc1cc2c3c(c1OC)-c1ccccc1C[C@H]3N(C)CC2` [Compound 1, nuciferine] the “Catalepsy Latency” value ([3]; 10 mg/kg ip) was 3.875 ± 2.32 s, the “Hotplate Latency (% MPE)” value ([3]; 10 mg/kg ip) was 6.99 ± 2.61 % MPE and the “Tail-Flick Latency (% MPE)” value ([3]; 10 mg/kg ip) was 11.69 ± 6.074 % MPE. For the same compound, the “Rectal temperature (°C)” value ([3]; 10 mg/kg ip) was −0.49 ± 0.31 °C, the “Catalepsy Latency” value ([3]; 30 mg/kg ip) was 1.750 ± 0.62 s and the “Hotplate Latency (% MPE)” value ([3]; 30 mg/kg ip) was 3.69 ± 3.01 % MPE. For the same compound, the “Tail-Flick Latency (% MPE)” value ([3]; 30 mg/kg ip) was 18.43 ± 10.50 % MPE, the “Rectal temperature (°C)” value ([3]; 30 mg/kg ip) was −0.91 ± 0.31 °C and the “Catalepsy Latency” value ([3]; 75 mg/kg ip) was 3.500 ± 1.07 s. For the same compound, the “Hotplate Latency (% MPE)” value ([3]; 75 mg/kg ip) was 0.68 ± 2.73 % MPE, the “Tail-Flick Latency (% MPE)” value ([3]; 75 mg/kg ip) was 19.45 ± 6.16 % MPE and the “Rectal temperature (°C)” value ([3]; 75 mg/kg ip) was −1.68 ± 0.38 °C. The “Catalepsy Latency” value ([3]; 100 mg/kg ip) was 1.500 ± 0.27 s, the “Hotplate Latency (% MPE)” value ([3]; 100 mg/kg ip) was 21.78 ± 7.16 % MPE and the “Tail-Flick Latency (% MPE)” value ([3]; 100 mg/kg ip) was 14.14 ± 15.52 % MPE. The “Rectal temperature (°C)” value ([3]; 100 mg/kg ip) was −3.8 ± 0.57 °C, the “Behavioral effects in tetrad assay (in words)” value (shortened to “Behavioral effects”) ([3]; 100 mg/kg/ip) was “only decreased locomotion and hypothermia at the same dose, but failed to display catalepsy and antinociceptive activity” and the “Behavioral effects” value [3, 6] was “failed to show any cataleptic effect or toxicity in the form of tremors and convulsions”.
With `COc1cc2c(cc1OC)C(Cc1ccc(O)cc1)N(C)CC2` (stereo not shown) [Compound 4, armepavine] the Ki (δ opioid receptor [1]; read-out: δ Ki (µM) ± SEM) was 23.8 ± 3.7 µM, the Ki (κ opioid receptor; read-out: κ Ki (µM) ± SEM) was 13 ± 1.4 µM and the Ki (μ opioid receptor [2]; read-out: μ Ki (µM) ± SEM) was 2.7 ± 0.8 µM.
Work on `COc1cc2c(cc1O)[C@@H](Cc1ccc(O)cc1)N(C)CC2` [Compound 6, N-methylcoclaurine] yielded a Ki (δ opioid receptor [1]; read-out: δ Ki (µM) ± SEM) of 20.1 ± 3.1 µM, a Ki (κ opioid receptor; read-out: κ Ki (µM) ± SEM) of 0.9 ± 0.1 µM and a Ki (μ opioid receptor [2]; read-out: μ Ki (µM) ± SEM) of 4 ± 0.5 µM.
With `COc1cc2c(cc1O)C(Cc1ccc(O)cc1)NCC2` (stereo not shown) [Compound 7, coclaurine] the Ki (δ opioid receptor [1]) was 21.1 ± 2 µM, the Ki (κ opioid receptor) was 2.2 ± 0.2 µM and the “Catalepsy Latency” value ([3]; 10 mg/kg ip) was 1.25 ± 0.25 s. For the same compound, the “Hotplate Latency (% MPE)” value ([3]; 10 mg/kg ip) was 10.15 ± 4.45 % MPE, the “Tail-Flick Latency (% MPE)” value ([3]; 10 mg/kg ip) was 16.57 ± 7.23 % MPE and the “Rectal temperature (°C)” value ([3]; 10 mg/kg ip) was 0.17 ± 0.08 °C. The “Catalepsy Latency” value ([3]; 30 mg/kg ip) was 2.37 ± 0.59 s, the “Hotplate Latency (% MPE)” value ([3]; 30 mg/kg ip) was 5.46 ± 5.05 % MPE and the “Tail-Flick Latency (% MPE)” value ([3]; 30 mg/kg ip) was 1.43 ± 6.95 % MPE. The “Rectal temperature (°C)” value ([3]; 30 mg/kg ip) was 0.1 ± 0.15 °C, the “Catalepsy Latency” value ([3]; 75 mg/kg ip) was 1.75 ± 0.41 s and the “Hotplate Latency (% MPE)” value ([3]; 75 mg/kg ip) was 15.49 ± 3.57 % MPE. The “Tail-Flick Latency (% MPE)” value ([3]; 75 mg/kg ip) was 13.95 ± 5.01 % MPE, the “Rectal temperature (°C)” value ([3]; 75 mg/kg ip) was −0.39 ± 0.05 °C and the “Catalepsy Latency” value ([3]; 100 mg/kg ip) was 1.25 ± 0.25 s. For the same compound, the “Hotplate Latency (% MPE)” value ([3]; 100 mg/kg ip) was 6.08 ± 1.9 % MPE, the “Tail-Flick Latency (% MPE)” value ([3]; 100 mg/kg ip) was 10.07 ± 3.31 % MPE and the “Rectal temperature (°C)” value ([3]; 100 mg/kg ip) was −0.58 ± 0.23 °C. For the same compound, the “Behavioral effects” value [3, 6] was “did not influence any significant behavioral effects with the exception of weak locomotor activity” and the Ki (μ opioid receptor [2]) was 5 ± 0.7 µM.
Work on `COc1ccc(C[C@@H]2c3cc(Oc4cc(C[C@@H]5c6cc(OC)c(OC)cc6CCN5C)ccc4O)c(OC)cc3CCN2C)cc1` [Compound 10, neferine] yielded a Ki (δ opioid receptor [1]) of 0.7 ± 0.1 µM, a Ki (κ opioid receptor) of 3.3 ± 0.4 µM and an EC50 (δ opioid receptor [4]) of 7.9 ± 2.1 µM. For the same compound, the EC50 (μ opioid receptor [5]) was over 21 µM, the “Functional character at μ opioid receptor by GTPγS assay” value (μ opioid receptor [5]; in words) was “weak μ partial agonist” and the Ki (μ opioid receptor [2]) was 1.8 ± 0.2 µM.
`COc1ccc(C[C@@H]2c3cc(OC)c(OC)cc3CCN2C)cc1` [Compound 12, 4´-O-methylarmepavine] was tested, and the “Opioid receptor displacement (%) δ” value (δ opioid receptor [1]) was “did not show any significant displacements”, the “Opioid receptor displacement (%) κ” value (κ opioid receptor) was “did not show any significant displacements” and the “Opioid receptor displacement (%) μ” value (μ opioid receptor [2]) was “did not show any significant displacements”.
For `COc1ccc(CC2c3cc(OC)c(OC)cc3CCN2C)cc1` (stereo not shown) [Compound 13, 4´,7-di-O-methylarmepavine], the “Opioid receptor displacement (%) δ” value (δ opioid receptor [1]) was “did not show any significant displacements”, the “Opioid receptor displacement (%) κ” value (κ opioid receptor) was “did not show any significant displacements” and the “Opioid receptor displacement (%) μ” value (μ opioid receptor [2]) was “did not show any significant displacements”.
`CCCCC/C=C\C/C=C\CCCCCCCC(=O)O` [Linoleic acid (LA), linoleic acid] gave a Ki (δ opioid receptor [1]) of 14.5 ± 2.4 µM.
Compound `CCCCCCCCCCCCCCCC(=O)O` [Palmitic acid (PA), palmitic acid] has a Ki (δ opioid receptor [1]) of over 21.1 µM.
With O-methylcoclaurine [Compound 5] the Ki (δ opioid receptor [1]; read-out: δ Ki (µM) ± SEM) was 22.6 ± 3.9 µM, the Ki (κ opioid receptor; read-out: κ Ki (µM) ± SEM) was 3.5 ± 0.3 µM and the Ki (μ opioid receptor [2]; read-out: μ Ki (µM) ± SEM) was 2 ± 0.3 µM.
